Here are results for 24 compounds from patent US9586951B2 (FUJIFILM Corporation, priority 2013, dated 2017).

T1 sequence (Q13315 whole entry): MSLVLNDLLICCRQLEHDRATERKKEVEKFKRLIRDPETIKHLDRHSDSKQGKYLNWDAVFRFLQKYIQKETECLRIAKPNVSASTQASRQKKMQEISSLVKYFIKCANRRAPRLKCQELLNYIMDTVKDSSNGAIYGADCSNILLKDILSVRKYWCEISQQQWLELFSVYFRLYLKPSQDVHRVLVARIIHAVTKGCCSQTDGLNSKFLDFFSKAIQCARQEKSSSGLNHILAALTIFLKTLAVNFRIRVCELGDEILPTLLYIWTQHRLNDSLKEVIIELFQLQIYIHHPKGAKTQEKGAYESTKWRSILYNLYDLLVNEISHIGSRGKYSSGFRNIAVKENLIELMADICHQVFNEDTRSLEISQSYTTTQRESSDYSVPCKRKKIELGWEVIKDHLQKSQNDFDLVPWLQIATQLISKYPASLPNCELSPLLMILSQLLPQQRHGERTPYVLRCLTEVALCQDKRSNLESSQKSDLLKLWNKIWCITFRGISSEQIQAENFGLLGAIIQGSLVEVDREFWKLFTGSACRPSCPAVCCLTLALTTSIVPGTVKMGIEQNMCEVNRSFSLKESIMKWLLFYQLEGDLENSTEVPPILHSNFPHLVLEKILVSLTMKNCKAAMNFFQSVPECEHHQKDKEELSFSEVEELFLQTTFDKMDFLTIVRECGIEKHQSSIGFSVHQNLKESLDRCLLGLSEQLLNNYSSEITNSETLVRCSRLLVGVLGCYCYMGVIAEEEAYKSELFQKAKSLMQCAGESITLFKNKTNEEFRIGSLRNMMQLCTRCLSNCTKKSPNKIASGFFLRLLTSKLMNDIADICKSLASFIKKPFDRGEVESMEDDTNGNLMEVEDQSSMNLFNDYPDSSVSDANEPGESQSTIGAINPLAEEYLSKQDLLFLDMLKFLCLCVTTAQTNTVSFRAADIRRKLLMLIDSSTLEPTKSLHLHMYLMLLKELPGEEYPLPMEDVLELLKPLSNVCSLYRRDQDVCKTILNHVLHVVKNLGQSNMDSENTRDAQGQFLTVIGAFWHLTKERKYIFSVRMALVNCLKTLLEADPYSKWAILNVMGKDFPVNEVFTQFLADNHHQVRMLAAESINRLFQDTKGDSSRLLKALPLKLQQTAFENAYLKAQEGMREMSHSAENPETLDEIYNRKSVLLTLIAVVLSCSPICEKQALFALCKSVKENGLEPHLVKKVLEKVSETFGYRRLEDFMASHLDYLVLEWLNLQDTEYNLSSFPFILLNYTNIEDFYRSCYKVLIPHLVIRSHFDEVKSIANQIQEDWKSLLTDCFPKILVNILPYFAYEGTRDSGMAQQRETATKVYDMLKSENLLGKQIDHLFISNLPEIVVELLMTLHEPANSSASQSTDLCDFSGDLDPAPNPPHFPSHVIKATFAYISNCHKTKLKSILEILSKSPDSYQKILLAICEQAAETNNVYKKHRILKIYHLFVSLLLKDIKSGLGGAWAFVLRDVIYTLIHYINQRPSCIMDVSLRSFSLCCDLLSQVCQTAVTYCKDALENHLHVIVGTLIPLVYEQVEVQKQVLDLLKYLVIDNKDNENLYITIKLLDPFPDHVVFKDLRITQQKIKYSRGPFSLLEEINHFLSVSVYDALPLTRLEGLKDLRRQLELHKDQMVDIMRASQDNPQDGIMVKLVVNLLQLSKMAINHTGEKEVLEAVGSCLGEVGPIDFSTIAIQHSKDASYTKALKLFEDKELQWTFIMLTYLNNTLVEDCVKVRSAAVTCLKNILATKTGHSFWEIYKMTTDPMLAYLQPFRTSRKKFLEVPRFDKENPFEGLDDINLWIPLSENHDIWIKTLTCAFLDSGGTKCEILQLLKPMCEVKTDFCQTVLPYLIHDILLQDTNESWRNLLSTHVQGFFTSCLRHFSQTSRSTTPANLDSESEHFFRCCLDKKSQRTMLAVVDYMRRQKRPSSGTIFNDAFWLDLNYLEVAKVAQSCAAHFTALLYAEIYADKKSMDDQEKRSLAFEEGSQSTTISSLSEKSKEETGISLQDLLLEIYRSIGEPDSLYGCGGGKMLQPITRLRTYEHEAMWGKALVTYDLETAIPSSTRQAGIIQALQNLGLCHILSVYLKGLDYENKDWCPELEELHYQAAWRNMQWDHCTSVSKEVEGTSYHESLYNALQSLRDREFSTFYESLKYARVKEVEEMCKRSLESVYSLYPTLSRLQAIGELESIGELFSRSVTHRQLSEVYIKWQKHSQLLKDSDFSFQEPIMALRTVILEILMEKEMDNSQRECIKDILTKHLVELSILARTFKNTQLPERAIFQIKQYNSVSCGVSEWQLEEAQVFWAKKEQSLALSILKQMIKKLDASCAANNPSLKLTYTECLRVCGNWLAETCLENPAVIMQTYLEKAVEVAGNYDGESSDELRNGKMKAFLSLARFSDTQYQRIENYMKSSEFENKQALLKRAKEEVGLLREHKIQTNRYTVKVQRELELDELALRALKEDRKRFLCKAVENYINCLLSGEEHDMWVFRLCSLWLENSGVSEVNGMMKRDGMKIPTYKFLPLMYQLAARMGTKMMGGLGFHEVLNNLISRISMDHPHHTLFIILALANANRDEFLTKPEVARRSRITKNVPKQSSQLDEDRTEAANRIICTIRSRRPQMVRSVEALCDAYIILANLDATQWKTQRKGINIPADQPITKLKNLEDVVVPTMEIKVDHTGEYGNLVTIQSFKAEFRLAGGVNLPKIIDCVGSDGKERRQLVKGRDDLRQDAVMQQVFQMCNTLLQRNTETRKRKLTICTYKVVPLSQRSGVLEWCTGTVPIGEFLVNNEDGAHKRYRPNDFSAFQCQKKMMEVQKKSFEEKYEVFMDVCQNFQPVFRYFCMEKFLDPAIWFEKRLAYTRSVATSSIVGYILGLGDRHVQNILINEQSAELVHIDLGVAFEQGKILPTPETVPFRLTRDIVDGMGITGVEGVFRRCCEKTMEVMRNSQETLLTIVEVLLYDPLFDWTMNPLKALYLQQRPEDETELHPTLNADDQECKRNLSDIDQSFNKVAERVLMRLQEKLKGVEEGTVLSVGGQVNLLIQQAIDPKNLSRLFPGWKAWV

The assay concerns the target T1, ATM (Homo sapiens, UniProt Q13315).
T1 construct: detecting phosphorylation of Chk2 in a human non-small cell lung cancer cell line NCI-H460 (ATCC company); host or cells: NCI-H460 human non-small cell lung cancer cells
Kind of assay: ATM inhibition test (phosphorylation of Chk2 generated by ionizing radiation, AlphaScreen SureFire). It counts as cell-based. Particulars: phosphorylated Chk2 in NCI-H460 cells, ionizing radiation 8Gy, 1 hour after test compound treatment; read-out: ATM inhibitory activity. In outline:
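Phosphorylated Chk2 read by AlphaScreen SureFire in human non-small cell lung cancer NCI-H460 cells, 1 hour after 8Gy ionizing radiation at 37° C. Compound added 1 hour before irradiation. Percent inhibition normalised between irradiated and non-irradiated drug-untreated signals.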
For orientation: Bead proximity is the source of the signal in Alpha formats.
For the compound `CC(C)N1CCC(Nc2ccc3c(c2)Sc2cccc(-c4cc(N5CCOCC5)cc(=O)[nH]4)c2S3)CC1` [Example 1-12-116, 6-(7-((1-Isopropylpiperidin-4-yl)amino)thianthren-1-yl)-4-morpholino pyridin-2(1H)-one], the IC50 is 100 to 500 nM.

Regarding `Cc1ccc(C(CC2CCCCC2)Nc2ccc3c(c2)Sc2cccc(-c4cc(N5CCOCC5)cc(=O)[nH]4)c2S3)nc1` (stereo not drawn) [Example 1-12-129, 6-(7-((2-Cyclohexyl-1-(5-methylpyridin-2-yl)ethyl)amino)thianthren-1-yl)-4-morpholino pyridin-2(1H) one], the IC50 was in the range of 500 to 2000 nM.

On to `O=c1cc(N2CCOCC2)cc(-c2cccc3c2Sc2ccc(NCc4ncccn4)cc2C3)[nH]1` [Example 3-8-6, 4-Morpholino-6-(7-((pyrimidin-2-ylmethyl)amino)-9H-thioxanthen-4-yl) pyridin-2(1H)-one], for which the IC50 fell in the range of 100 to 500 nM.

For `O=C(CN1C2CCC1COC2)Nc1ccc2c(c1)Sc1cccc(-c3cc(N4CCOCC4)cc(=O)[nH]3)c1S2` [Example 1-7-2, 2-(3-Oxa-8-azabicyclo[3.2.1]octan-8-yl)-N-(6-(4-morpholino-6-oxo-1,6-dihydropyridin-2-yl)thianthren-2-yl)acetamide], the IC50 was in the range of 100 to 500 nM.

On to `O=c1cc(N2CCOCC2)cc(-c2cccc3c2Oc2ccc(NC4CCN(CCc5ccccc5)C4)cc2C3)[nH]1` (stereo not drawn) [Example 2-19-7, 4-Morpholino-6-(7-((1-phenethylpyrrolidin-3-yl)amino)-9H-xanthen-4-yl)pyridin-2(1H)-one], for which the IC50 was in the range of 100 to 500 nM.

Turning to `CN[C@@H](Cc1ccccc1)C(=O)Nc1ccc2c(c1)Sc1cccc(-c3cc(N4CCOCC4)cc(=O)[nH]3)c1S2` [Example 1-4, (S)-2-(methylamino)-N-(6-(4-morpholino-6-oxo-1,6-dihydropyridin-2-yl)thianthren-2-yl)-3-phenyl propanamide], the IC50 lay in the range of 100 to 500 nM.

`O=c1cc(N2CCOCC2)cc(-c2cccc3c2Oc2ccc(NC4CCN(CC5CCCCC5)CC4)cc2C3)[nH]1` [Example 2-28-35, 6-(7-((1-(Cyclohexylmethyl)piperidin-4-yl)amino)-9H-xanthen-4-yl)-4-morpholino pyridin-2(1H)-one]: the IC50 was 100 to 500 nM.

For `Cc1ccc(C(CCN2CCOCC2)Nc2ccc3c(c2)Sc2cccc(-c4cc(N5CCOCC5)cc(=O)[nH]4)c2S3)nc1` (single isomer, unassigned) [Example 1-51-7, 6-(7-((1-(5-Methylpyridin-2-yl)-3-morpholinopropyl)amino)thianthren-1-yl)-4-morpholino pyridin-2(1H)-one], the IC50 is below 100 nM.

`COc1ccc(CNc2ccc3c(c2)Sc2cccc(-c4cc(N5CCOCC5)cc(=O)[nH]4)c2S3)nc1` [Example 1-12-12, 6-(7-(((5-Methoxypyridin-2-yl)methyl)amino)thianthren-1-yl)-4-morpholino pyridin-2(1H)-one]: the IC50 fell in the range of 100 to 500 nM.

As for `CC(CCNc1ccc2c(c1)Sc1cccc(-c3cc(N4CCOCC4)cc(=O)[nH]3)c1S2)N1CCOCC1` (stereo not drawn) [Example 8-2, 4-Morpholino-6-(7-((3-morpholinobutyl)amino)thianthren-1-yl)pyridin-2(1H)-one], the IC50 lay within 100 to 500 nM.

In the case of `COc1cccnc1CNc1ccc2c(c1)Cc1ccnc(-c3cc(N4CCOCC4)cc(=O)[nH]3)c1O2` [Example 2-41-12, 6-(7-(((3-Methoxypyridin-2-yl)methyl)amino)-5H-chromeno [2,3-c]pyridin-1-yl)-4-morpholino pyridin-2(1H)-one], the IC50 was in the range of 500 to 2000 nM.

Consider `O=c1cc(N2CCOCC2)cc(-c2cccc3c2Oc2ccc(NC4CCN(Cc5cncnc5)CC4)cc2C3)[nH]1` [Example 2-28-4, 4-Morpholino-6-(7-((1-(pyrimidin-5-ylmethyl)piperidin-4-yl)amino)-9H-xanthen-4-yl)pyridin-2 (1H)-one], for which the IC50 fell in the range of 100 to 500 nM.

On to `O=c1cc(N2CCOCC2)cc(-c2cccc3c2Oc2ccc(NCc4cncs4)cc2C3)[nH]1` [Example 2-14-37, 4-Morpholino-6-(7-((thiazol-5-ylmethyl)amino)-9H-xanthen-4-yl) pyridin-2(1H)-one], for which the IC50 lay in the range of 500 to 2000 nM.

With `O=c1cc(N2CCOCC2)cc(-c2cccc3c2Oc2ccc(NCc4cscn4)cc2C3)[nH]1` [Example 2-14-36, 4-Morpholino-6-(7-((thiazol-4-ylmethyl)amino)-9H-xanthen-4-yl) pyridin-2(1H)-one], the IC50 was in the range of 100 to 500 nM.

Take `O=c1cc(N2CCOCC2)cc(-c2cccc3c2Oc2ccc(NCc4cnc5c(c4)OCO5)cc2C3)[nH]1` [Example 2-2-30, 6-(7-(([1,3]Dioxolo[4,5-b]pyridin-6-ylmethyl)amino)-9H-xanthen-4-yl)-4-morpholino pyridin-2(1H)-one]: the IC50 is 100 to 500 nM.

Take `CC(C)(C)OC(=O)N1CCC[C@H]1CNc1ccc2c(c1)Cc1cccc(-c3cc(N4CCOCC4)cc(=O)[nH]3)c1O2` [Example 2-21-3, (S)-tert-Butyl 2-(((5-(4-morpholino-6-oxo-1,6-dihydropyridin-2-yl)-9H-xanthen-2-yl)amino)methyl) pyrrolidine-1-carboxylate]: the IC50 lay within 500 to 2000 nM.

`CN1CCC(CNc2ccc3c(c2)Sc2cccc(-c4cc(N5CCOCC5)cc(=O)[nH]4)c2S3)CC1` [Example 1-12-31, 6-(7-(((1-Methylpiperidin-4-yl)methyl)amino)thianthren-1-yl)-4-morpholino pyridin-2(1H)-one]: the IC50 was 100 to 500 nM.

`CC(Nc1ccc2c(c1)Sc1cccc(-c3cc(N4CCOCC4)cc(=O)[nH]3)c1S2)c1cc(C#N)ncn1` (stereo not drawn) [Example 1-12-84, 6-(1-((6-(4-Morpholino-6-oxo-1,6-dihydropyridin-2-yl)thianthren-2-yl)amino)ethyl)pyrimidine-4-carbonitrile]: the IC50 lay within 100 to 500 nM.

Take `CC(C)Nc1cncc(CNc2ccc3c(c2)Cc2cccc(-c4cc(N5CCOCC5)cc(=O)[nH]4)c2O3)c1` [Example 2-2-75, 6-(7-(((5-(Isopropylamino)pyridin-3-yl)methyl)amino)-9H-xanthen-4-yl)-4-morpholino pyridin-2(1H)-one]: the IC50 is 100 to 500 nM.

Regarding `O=c1cc(N2CCOCC2)cc(-c2cccc3c2Oc2ccc(NC4CCN(Cc5cccnc5)CC4)cc2C3)[nH]1` [Example 2-9-2, 4-Morpholino-6-(7-((1-(pyridin-3-ylmethyl)piperidin-4-yl)amino)-9H-xanthen-4-yl)pyridin-2(1H)-one], the IC50 is 100 to 500 nM.

`CN1CCC(Nc2ccc3c(c2)Cc2cccc(-c4cc(N5CCOCC5)cc(=O)[nH]4)c2O3)CC1` [Example 2-3-7, 6-(7-((1-Methylpiperidin-4-yl)amino)-9H-xanthen-4-yl)-4-morpholino pyridin-2(1H)-one]: the IC50 lay in the range of 500 to 2000 nM.

Consider `Cc1nccc(C(C)Nc2ccc3c(c2)Sc2cccc(-c4cc(N5CCOCC5)cc(=O)[nH]4)c2S3)n1` (stereo not drawn) [Example 1-12-80, 6-(7-((1-(2-Methylpyrimidin-4-yl)ethyl)amino)thianthren-1-yl)-4-morpholino pyridin-2(1H)-one], for which the IC50 lay within 100 to 500 nM.

Consider `Cc1ccc(C(Nc2ccc3c(c2)Sc2cccc(-c4cc(N5CCOCC5)cc(=O)[nH]4)c2S3)[C@@H]2CCCN2C)nc1` (single isomer, unassigned) [Example 1-56-3], for which the IC50 was below 100 nM.

Regarding `O=c1cc(N2CCOCC2)cc(-c2cccc3c2Sc2ccc(NC4CCN(C5CCCCC5)C4)cc2S3)[nH]1` (stereo not drawn) [Example 1-24-9, 6-(7-((1-Cyclohexylpyrrolidin-3-yl)amino)thianthren-1-yl)-4-morpholinopyridin-2(1H)-one], the IC50 is 100 to 500 nM.
